Structures are written as SMILES. ≈ marks a conversion by molar mass, not a printed value. Where two headings read alike, the source gives them in different places.

For one assay, the system named is E. coli HH 33779. As to the kind of experiment: MIC in vitro. It counts as cell-based. The note with it: Escherichia coli, HH33779, Table 1; E. coli HH 33779; read-out: MIC in vitro. As for the experimental part:
(§1) The compounds of Formula I have exceptional antibacterial activity against both Gram-positive and Gram-negative organisms. Minimum inhibitory concentrations (MIC's) ranged from 0.2 to <200 μg./ml. in in vitro testing.

A further assay has as its system E. coli SK 12140. Put plainly: MIC in vitro. The format is cell-based. The note with it: Escherichia coli, E. coli SK 12140. As for the experimental part:
as §1

For the next assay, the system named is Proteus morgani 179. As to the kind of experiment: MIC in vitro. It counts as cell-based. The note with it: Table 1, read-out: MIC in vitro. The method, then: as §1
In the next assay the test system is S. aureus HH 127. As to the kind of experiment: MIC in vitro. It counts as cell-based. The note with it: Staphylococcus aureus, S. aureus HH 127. As for the experimental part:
as §1

The next assay deals with S. aureus SK 23390. As to the kind of experiment: MIC in vitro. It counts as cell-based. The note with it: Staphylococcus aureus, SK23390, Table 1; S. aureus SK 23390; read-out: MIC in vitro. The method, then:
as §1

The next assay deals with S. villaluz. Put plainly: MIC in vitro. The note with it: Table 1. The format is cell-based. As for the experimental part: as §1
Another assay relates to Salmonella ATCC 12176. As to the kind of experiment: MIC in vitro. The note with it: Salmonella, ATCC12176, Table 1, read-out: MIC in vitro. The format is cell-based. The method, then:
as §1

For a further assay, the system named is Strep. Faecalis HH 34358. Put plainly: MIC in vitro. It counts as cell-based. The note with it: Enterococcus faecalis, Table 1; Strep. Faecalis HH 34358; read-out: MIC in vitro. As for the experimental part:
as §1

The next assay has as its system shigella HH 117. Put plainly: MIC in vitro. It counts as cell-based. The note with it: HH117; Table 1; shigella HH 117; read-out: MIC in vitro. The method, then: as §1
The subject of a further assay is Kleb. pneumo. SK 1200. As to the kind of experiment: MIC in vitro. The format is cell-based, Kleb. pneumoniae. The note with it: Klebsiella pneumoniae, read-out: MIC in vitro. The method, then:
as §1

For a further assay, the system named is Kleb. pneumo. SK 4200. As to the kind of experiment: MIC in vitro. The format is cell-based, Kleb. pneumoniae. The note with it: Klebsiella pneumoniae, Table 1; Kleb. pneumo. SK 4200; read-out: MIC in vitro. As for the experimental part: as §1
The subject of the next assay is Psuedo. sp. HH 63. As to the kind of experiment: MIC in vitro. The note with it: Pseudomonas aeruginosa; Table 1; Psuedo. sp. HH 63; read-out: MIC in vitro. The format is cell-based, Pseudo. aeruginosa. As for the experimental part: as §1
In assay [1] the test system is Entero. aerog. ATCC 13048. As to the kind of experiment: MIC in vitro. The format is cell-based, Enterobacter aerogenes. The note with it: Klebsiella aerogenes, ATCC13048, Table 1; Entero. aerog. ATCC 13048; read-out: MIC in vitro. As for the experimental part: as §1
The next assay deals with Serra. marc ATCC 13880. As to the kind of experiment: MIC in vitro. The format is cell-based, Serratia marcescens. The note with it: Serratia marcescens, ATCC13880, Table 1; Serra. marc ATCC 13880; read-out: MIC in vitro. The method, then:
as §1

Another assay deals with Entero. cloacae HH 31254. As to the kind of experiment: MIC in vitro. It counts as cell-based. The note with it: Enterobacter cloacae.
For a further assay, the system named is E. coli 12140. Put plainly: In vivo mouse protection, E. coli 12140. The note with it: Table 2, E. coli 12140, read-out: ED50 in vivo.
The next assay relates to Kleb. pneumo. 4200. As to the kind of experiment: In vivo mouse protection, Kleb. pneumo. 4200. The note with it: sc, Table 2, Kleb. pneumo. 4200, s.c., read-out: ED50 in vivo.
Where [2] appears, read: SK12140, Table 1, read-out: MIC in vitro.
Where [3] appears, read: HH127, Table 1, read-out: MIC in vitro.
Setting [4] is: Escherichia coli, 12140, po, p.o.
Where [5] appears, read: Escherichia coli, 12140, sc, s.c.
The mark [6] stands for this setting: HH31254, read-out: MIC in vitro, Table 1.

A word on the MIC: it is the lowest concentration found to suppress growth. The ED50 is the midpoint of the dose-response relation. With `NS(=O)(=O)CCn1nnnc1SCC1=C(C(=O)O)N2C(=O)C(NC(=O)Cc3cccs3)[C@H]2SC1` (stereo partly drawn) [VIII, 7-(2-thienylacetamido)-3-[1-(2-sulfamoylethyl)tetrazol-5-ylthiomethyl]-3-cephem-4-carboxylic acid], the MIC is 1.6 µg/mL (≈ 2.93 µM) in the assay with E. coli HH 33779; 0.8 µg/mL (≈ 1.47 µM) with E. coli SK 12140 (setting [2]); > 200 µg/mL with Proteus morgani 179; 0.4 µg/mL (≈ 0.733 µM) with S. aureus HH 127 (setting [3]); 0.1 µg/mL (≈ 0.183 µM) in the assay on S. aureus SK 23390; 1.6 µg/mL (≈ 2.93 µM) in the assay on S. villaluz. Moreover, the MIC with Salmonella ATCC 12176 was 0.8 µg/mL (≈ 1.47 µM); in the assay with Strep. Faecalis HH 34358, 6.3 µg/mL (≈ 11.5 µM); with shigella HH 117, 0.4 µg/mL (≈ 0.733 µM); with Kleb. pneumo. SK 1200, 0.4 µg/mL (≈ 0.733 µM); with Kleb. pneumo. SK 4200, 1.6 µg/mL (≈ 2.93 µM); with Psuedo. sp. HH 63 it was > 200 µg/mL. In addition, the MIC in [1] stood at 3.1 µg/mL (≈ 5.68 µM); in the assay with Serra. marc ATCC 13880, 200 µg/mL (≈ 367 µM); with Entero. cloacae HH 31254 (HH31254, Table 1, read-out: MIC in vitro), 0.8 µg/mL (≈ 1.47 µM). The figures for the ED50 in the assay on E. coli 12140 (setting [4]), in the assay on E. coli 12140 (setting [5]) and in the assay with Kleb. pneumo. 4200 were > 50 mg/kg, 1.32 mg/kg and 2 mg/kg, respectively.
As to `O=C(Cn1cnnn1)NC1C(=O)N2C(C(=O)O)=C(CSc3nnnn3CS(=O)(=O)O)CSC12` (stereo not drawn) [X, 7-(1-tetrazolylacetamido)-3-(1-sulfomethyltetrazol-5-ylthiomethyl)-3-cephem-4-carboxylic acid], the MIC with E. coli HH 33779 was 0.8 µg/mL (≈ 1.54 µM); in the assay on E. coli SK 12140 (SK12140, read-out: MIC in vitro, Table 1) it was 0.4 µg/mL (≈ 0.771 µM); with Proteus morgani 179 it was 200 µg/mL (≈ 386 µM); in the assay on S. aureus HH 127 (setting [3]) it was 1.6 µg/mL (≈ 3.09 µM); in the assay on S. aureus SK 23390, 1.6 µg/mL (≈ 3.09 µM); against S. villaluz, > 200 µg/mL. Also, the minimum inhibitory concentration (MIC) was 0.4 µg/mL (≈ 0.771 µM) in the assay on Salmonella ATCC 12176; 50 µg/mL (≈ 96.4 µM) with Strep. Faecalis HH 34358; 0.2 µg/mL (≈ 0.386 µM) with shigella HH 117; 0.2 µg/mL (≈ 0.386 µM) with Kleb. pneumo. SK 1200 (Table 1, Kleb. pneumo. SK 1200); 0.4 µg/mL (≈ 0.771 µM) in the assay on Kleb. pneumo. SK 4200; > 200 µg/mL in the assay with Psuedo. sp. HH 63. Further, the figures for the minimal inhibitory concentration (MIC) (in assay [1]; with Serra. marc ATCC 13880; in the assay on Entero. cloacae HH 31254 (setting [6])) were 3.1 µg/mL (≈ 5.98 µM), 200 µg/mL (≈ 386 µM) and 0.8 µg/mL (≈ 1.54 µM), respectively. Also, the values for the median effective dose (ED50) in the assay with E. coli 12140 (setting [4]), with E. coli 12140 (setting [5]) and in the assay on Kleb. pneumo. 4200 were 50 mg/kg, 1.56 mg/kg and 0.64 mg/kg, respectively.
In the case of `O=C(O)C1=C(CSc2nnnn2CCCCCS(=O)(=O)O)CS[C@@H]2C(NC(=O)[C@H](O)c3ccccc3)C(=O)N12` (stereo partly drawn) [IV, 7-D-Mandelamido-3-[1-(5-sulfopentyl)tetrazol-5-ylthiomethyl]-3-cephem-4-carboxylic acid], the minimum inhibitory concentration (MIC) in the assay with E. coli HH 33779 is 6.3 µg/mL (≈ 10.5 µM); in the assay on E. coli SK 12140 (setting [2]) it was 1.6 µg/mL (≈ 2.67 µM); with Proteus morgani 179, 3.1 µg/mL (≈ 5.18 µM); with S. aureus HH 127 (HH127, read-out: MIC in vitro, Table 1) it was 3.1 µg/mL (≈ 5.18 µM); with S. aureus SK 23390, 0.8 µg/mL (≈ 1.34 µM); in the assay with S. villaluz, 12.5 µg/mL (≈ 20.9 µM). The MIC was 3.1 µg/mL (≈ 5.18 µM) with Salmonella ATCC 12176; 50 µg/mL (≈ 83.5 µM) with Strep. Faecalis HH 34358; 0.8 µg/mL (≈ 1.34 µM) with shigella HH 117; 1.6 µg/mL (≈ 2.67 µM) in the assay with Kleb. pneumo. SK 1200 (Table 1, Kleb. pneumo. SK 1200); 1.6 µg/mL (≈ 2.67 µM) in the assay on Kleb. pneumo. SK 4200; > 200 µg/mL with Psuedo. sp. HH 63. The MIC in assay [1] is 6.3 µg/mL (≈ 10.5 µM); in the assay with Serra. marc ATCC 13880, 100 µg/mL (≈ 167 µM); with Entero. cloacae HH 31254 (setting [6]), 0.8 µg/mL (≈ 1.34 µM). Also, the 50% effective dose (ED50) in the assay with E. coli 12140 (setting [4]) is > 50 mg/kg; with E. coli 12140 (setting [5]), 18 mg/kg; with Kleb. pneumo. 4200, 15.7 mg/kg.
